The test system of one data set is TGF-β1. As to the kind of experiment: Spray-coated microcollection tubes: plasma TGF-β1 (Ella). The data set is classed as cell-based. The conditions noted are these: 3-day room temperature storage, spray-coated microcollection tubes (FIG. 10). On the procedure:
(§1) Blood was collected from healthy donors, each collected into 1×5 mL EDTA vacutainer tubes and virgin (no anticoagulant). Next, venous blood was aliquoted as quickly as possible into the spray-coated microtainers. The EDTA blood was aliquoted into virgin Greiner microtainers as negative controls. The blood with no anticoagulant was aliquoted into microcollection tubes spray coated with one of three formulations noted in Table 2 below, with two tubes per formulation. The sprayed microtainers were then mixed 15-20 times with the blood sample.
(§2) Half of the samples were analyzed at draw time and the remaining half were stored at room temperature for 3 days before analysis. Plasma protein concentration of TGF-β1 was analyzed with Ella (FIG. 10). Plasma β-Actin level was determined by ddPCR (FIG. 11).

Data set [1] relates to cfDNA. Nature of the data set: cfDNA stability: Qubit HS DNA Assay, total plasma cfDNA. The text has this:
(§3) The drawn blood samples were stored at room temperature for up to 7 days. Total cell-free nucleic acids were isolated from day 0 or day 7 blood samples using Qiagen's QIAamp Circulating Nucleic Acid Kit.
(§4) The resultant plasma cfDNA was first studied with Qubit HS DNA Assay (FIG. 5A), which quantifies the concentration of total plasma cfDNA. Without proper stabilization, white blood cells in drawn blood will lyse during storage and release large amounts of genomic DNA fragments into the plasma, leading to elevated total plasma cfDNA. Compared to cfDNA originating from white blood cells, tumor-derived cfDNA is preset at a very low concentration. Tumor-derived cfDNA should not be detectable in healthy donors.

Data set [2] deals with cfRNA. As to the kind of experiment: cfRNA stability: Agilent RNA Pico Kit, Bioanalyzer. The conditions noted are these: day 7 versus freshly collected blood. The text has this: (§5) Total cell-free nucleic acids were isolated from day 0 or day 7 blood samples using Qiagen's QIAamp Circulating Nucleic Acid Kit.
The plasma cfRNA was first analyzed with Agilent's RNA Pico Kit on the Agilent Bioanalyzer system (FIG. 6A).

A further data set relates to β-actin (ACTB). As to the kind of experiment: cfDNA stability: plasma β-actin (ACTB) by digital droplet PCR. Conditions: day 7 blood, ambient storage.
Source text: as §3, §4

Data set [3] relates to platelets. As to the kind of experiment: Tasso+ capillary blood study: plasma MPO and RANTES. The data set is classed as cell-based. Conditions: venous and Tasso+ capillary blood, up to 3 days room temperature. On the procedure:
Tasso+ is a single-use device that collects up to 0.5 mL of capillary blood from a donor's upper arm. Tasso+ is compatible with BD Microtainer® Blood Collection Tubes.
Capillary blood samples were collected from 3 donors. […] Blood samples were stored at room temperature for up to 3 days. Three functionality assays were conducted, including measuring hemolysis (FIG. 8A) and testing the plasma level of MPO (FIG. 8B) and RANTES (FIG. 8C).

In a further data set the test system is plasma proteins. As to the kind of experiment: Venous blood, Luminex xMAP Multiplex Immunoassay Panel. Type of data set: cell-based. The conditions noted are these: room temperature storage, 3 to 5 days. On the procedure: After double-spin process, isolated plasma fractions were tested with Luminex xMAP Multiplex Immunoassay Panel.
In a further data set the test system is β-Actin DNA (ACTB). Nature of the data set: Spray-coated microcollection tubes: plasma β-Actin by ddPCR. On the procedure: as §1, §2
The test system of data set [4] is cfRNA. Nature of the data set: cfRNA stability: Qubit miRNA Assay, total plasma cfRNA. Conditions: 7 days ambient storage.
Source text: as §5
Qubit miRNA Assay was used to quantify the concentration of total plasma cfRNA. If RNA-containing cells, such as reticulocytes and white blood cells, were lysed during storage, then large amounts of RNA fragments would be released into plasma, masking the very low abundant circulating cfRNA while resulting in elevated cfRNA.

The subject of a further data set is red blood cells. As to the kind of experiment: TAP II capillary blood study: hemolysis (A414). The data set is classed as cell-based. The conditions noted are these: venous blood and TAP II capillary blood, up to 3 days room temperature. The text has this: Blood samples were stored at room temperature for up to 3 days.
For another data set, the system named is RBC. As to the kind of experiment: In vitro hemolysis, absorbance at 414 nm (Nanodrop). Type of data set: cell-based. The conditions noted are these: venous blood, room temperature up to 5 days, N=15. An excerpt: Hemolysis was quantitatively measured by following the absorbance at 414 nm with Nanodrop. An increased A414 indicates releasing of hemoglobin from broken RBC, which is a key event of hemolysis.

For data set [5], the system named is cfDNA. As to the kind of experiment: cfDNA stability: Agilent cfDNA ScreenTape Assay.
Source text: as §3
Plasma cfDNA was further analyzed with Agilent cfDNA ScreenTape Assay on Agilent TapeStation (FIGS. 5C & 5D). […] Thus, the percentage of cfDNA between 150-300 bp among total cfDNA (% cfDNA) was used to indicate genomic DNA contamination (FIG. 5D).

Data set [6] has as its system white blood cells, red blood cells, and platelets. As to the kind of experiment: Third round screening: plasma MPO, ferritin and RANTES as blood cell damage indicators. Type of data set: cell-based. Conditions: inhibitor in Streck B formulation; 7-day room temperature storage; data not shown. On the procedure:
The effects of these seven inhibitors on white blood cells, red blood cells, and platelets were evaluated during the third round of screening. […] Therefore, plasma levels of myeloperoxidase (MPO), ferritin, and RANTES were measured with immunoassay as damage indicators of white blood cells, red blood cells, and platelets, respectively. Preservative formulations were made by adding platelet activation inhibitors to Streck B formulation at concentrations determined through the second round of screening. Venous blood was collected from 2 donors for all preservative formulations. EDTA, ACD-A, Streck B formulation and Streck B formulation spiked with 2 mM Tetracaine were used as references. Draw whole blood samples were stored at room temperature for up to 7 days.

Data set [7] concerns platelets. As to the kind of experiment: Second round screening: % activated platelets (CD62P/CD61 flow cytometry) and plasma TGF-β1. Type of data set: cell-based. Conditions: inhibitor in Streck B formulation at 3 to 5 dosages; room temperature up to 7 days; data not shown. On the procedure: Preservative formulations were made by adding platelet activation inhibitors to the Streck B formulation at the desired concentrations. Venous blood specimens from 2 donors were then drawn into blood collection tubes (BCTs) prefilled with these formulations. As references, blood specimens were also drawn into EDTA tubes, ACD-A tubes, tubes filed with Streck B formulation, and tubes containing Streck B formulation spiked with and 2 mM tetracaine. Blood specimens were stored at room temperature for up to 7 days.
The percentages of activated platelets (CD62P positive) among total platelets (CD61 positive) in drawn whole blood were measured by flow cytometry. The percentage of activated platelets was tested with Day 0 and Day 3 blood specimens. The plasma levels of TGF-β1 in Day 0, Day 1, Day 3, and Day 7 old blood specimens were measured with immunoassay.
A general note: Flow cytometry measures light scatter and fluorescence of single cells or particles in a stream.

For data set [8], the system named is platelets. Nature of the data set: First round screening of platelet activation inhibitors: plasma TGF-β1 by Ella immunoassay. Type of data set: cell-based. Conditions: inhibitor added to Streck B formulation; venous blood at room temperature; data not shown. On the procedure:
Blood specimens drawn from 3 donors were stored at room temperature for […]. Activated platelet secret granule contents, such as growth factors, chemokines, and cytokines, into plasma. Elevated plasma concentration of TGF-β1 indicates platelet activation and granule release. Plasma TGF-β1 level was measured with immunoassay using Ella Automated Immunoassay System. Freshly drawn blood (day 0), blood stored for 1 day (Day 1), 3 days (Day 3), and 7 days (Day 7) were tested.
The tested formulations are compared with EDTA and ACD-A for their ability to prevent granule release from platelets. Streck B formulation spiked with 2 mM tetracaine was also used as a reference.

The subject of data set [9] is platelets. Conditions: 2 mM mexiletine or 1 mM verapamil in Streck B formulation; tubes stored 2-50° C. up to 8 weeks; data not shown. An excerpt:
Freshly made tubes, 2 weeks old tubes, 4 weeks old tubes, and 8 weeks old tubes were then used to collect venous blood from 2 self-proclaimed healthy donors. Blood specimens were stored at room temperature for up to 3 days. The percentage of platelet activation and plasma level of TGF-31 to test the ability of the aged formulation to prevent platelets activation at collection time and during room temperature storage.

Entries after “also recorded” stand apart in the source; their conditions may differ.

Regarding `O=C(O)CN(CCN(CC(=O)O)CC(=O)O)CC(=O)O` [EDTA, ethylene diamine tetra acetic acid], in the data set on TGF-β1, the “change of plasma TGF-β1 level after storage” value is given as “drastically increased”. Moreover, the “total plasma cfDNA concentration” value in the data set on cfDNA [1] (day 0 blood) is reported as “low concentrations of cfDNA”; in the data set with cfDNA [1] (day 7 blood, room temperature), “elevated total cfDNA”. In the data set on cfRNA [2], the “plasma cfRNA electropherogram (concentration and population)” value is given as “greatly changed”. In the data set with β-actin (ACTB), the “plasma level of β-actin (ACTB) DNA” value was “high amount of ACTB”. Also, the “granule release from activated platelets (plasma MPO and RANTES)” value with platelets [3] was “increased”. Also, in the data set on plasma proteins, the “plasma concentrations of representative proteins and cytokines (FIG. 2: MPO, TGF-β1, CCL5/RANTES, MMP-9, VEGF, Granzyme B, TNFα, IL-8)” value is recorded as “elevated levels; also recorded: marked increase”. Besides, the “level of β-Actin in 3-day old plasma versus draw time plasma” value in the data set on β-Actin DNA (ACTB) (3 days room temperature (FIG. 11)) is “more than 20 fold”. The “plasma β-Actin DNA level after storage (genomic DNA contamination)” value with β-Actin DNA (ACTB) (3 days room temperature, spray-coated tubes (FIG. 11)) is “led to genomic DNA (β-Actin) contamination”. Further, the “increase of total cfRNA after storage” value in the data set with cfRNA [4] is about 5 fold. Further, in the data set on red blood cells, the hemolysis result was “induces hemolysis”. The “in vitro hemolysis (A414)” value with RBC is on record as “in vitro hemolysis since day 3; also recorded: significant hemolysis”. Further, the “% cfDNA (cfDNA between 150-300 bp among total cfDNA)” value in the data set with cfDNA [5] (Day 0 blood) amounted to 75%; in the data set with cfDNA [5] (Day 7 blood, room temperature), 30%. For the same molecule, the “plasma cfDNA electropherogram plots” value in the data set with cfDNA [5] (Day 7 blood) is “prominent peak of apoptotic-ladder DNA”.
Consider `CCN(CC)CC(=O)Nc1c(C)cccc1C` [lidocaine], for which the “adverse effects on white blood cells, red blood cells and platelet” value (“adverse effects on white blood cells” for short) in [6] is recorded as “little adverse effects”. Also, the “ability to reduce platelet activation in second round screening” value (from here on “ability to reduce platelet activation”) in the data set on platelets [7] is recorded as “behaved at least comparable to each other”.
Regarding `COc1ccc(CCN(C)CCCC(C#N)(c2ccc(OC)c(OC)c2)C(C)C)cc1OC` (stereo not drawn) [verapamil], in the data set on platelets [8], the “outcome of first round screening (maintaining plasma TGF-β1 comparable to Streck B formulation with tetracaine)” value (shortened to “outcome of first round screening”) is “graduated from the first round of the screening”. In addition, the “adverse effects on white blood cells” value in data set [6] is “little adverse effects”. In addition, the “ability to reduce platelet activation” value with platelets [7] is “behaved at least comparable to each other”.
For `COc1ccc([C@@H]2Sc3ccccc3N(CCN(C)C)C(=O)[C@@H]2OC(C)=O)cc1` [diltiazem] the same measures were “graduated from the first round of the screening”, “little adverse effects” and “behaved at least comparable to each other”.
In the same order, the values of `C=C[C@H]1C[N@@]2CC[C@H]1C[C@@H]2[C@@H](O)c1ccnc2ccc(OC)cc12` [quinidine] are “graduated from the first round of the screening”, “little adverse effects” and “behaved at least comparable to each other”.
For `Cc1cccc(C)c1NC(=O)C1CCCCN1C` (stereo not drawn) [mepivacaine] the same measures were “graduated from the first round of the screening”, “little adverse effects” and “behaved at least comparable to each other”.
Turning to `CCCCN1CCCCC1C(=O)Nc1c(C)cccc1C` (stereo not drawn) [bupivacaine], the “outcome of first round screening” value with platelets [8] is on record as “graduated from the first round of the screening”. Also, in data set [6], the “adverse effects on white blood cells” value is reported as “little adverse effects”. Besides, the “ability to reduce platelet activation” value in the data set with platelets [7] is listed as “behaved at least comparable to each other”.
Regarding `Cc1cccc(C)c1OCC(C)N` (stereo not drawn) [mexiletine], the “outcome of first round screening” value in the data set on platelets [8] was “graduated from the first round of the screening”. Also, the “adverse effects on white blood cells” value in [6] is “little adverse effects”. For the same molecule, the “functional stability of aged formulations compared to other tested ion inhibitors” value in the data set with platelets [9] is “better functional stability”. Besides, the “ability to reduce platelet activation” value in the data set on platelets [7] is “behaved at least comparable to each other”.

Values taken from patent US20260250641A1, “COMPOSITIONS AND USES THEREOF FOR STABILIZATION OF BLOOD SAMPLE COMPONENTS” (STRECK LLC, priority 2023, published 2026).
